According to patent US7799319B2, “Method for measuring skin absorbability” (Shiseido Company, Ltd., priority 2000, dated 2010):
Read-outs that look alike come from different tables or passages of the source.

Legend:
[1] = Measurement method 1-1: in vitro skin-pore absorption into hair follicles and skin tissue; assay type: in vitro ADME, miniature pig
Description: In measurement method 1-1, the skin of a model animal or the skin reconstructed from skin cells may be employed as a skin model. The model animal from which the skin is taken is not particularly limited, and pig, human, cattle, mouse, or rat are all potential donors. In measurement method 1-1, the skin of a hairy animal is usually employed in order to evaluate the penetrability of a drug through skin pores into hair follicles. Therefore, a mutated hairless animal is usually unsuitable for the model animal. […] Therefore, other than human, pig is preferably employed as a model animal.
The skin is not particularly limited, so long as the skin satisfies the above condition. For example, as described below in the Example, a skin model may be fixed onto a collagen gel.
The conditions for the application of the substance may be arbitrarily determined in accordance with the type of the substance or the object. Usually, the skin to which the substance is applied is incubated at about 37° C. (near the temperature of the human body) over a predetermined time period. The incubation time varies with the intended product form of the substance.
The portion at which the delivery amount of the substance is measured is limited to the region corresponding to the dermis of the skin, since in the region corresponding to the stratum corneum or epidermis of the skin, the hair follicle may be contaminated with epidermal tissue debris or excretions from the sebaceous glands, and thus the exact delivery amount of the substance is difficult to measure.
The method for measuring the delivery amount of the substance is not particularly limited. For example, liquid chromatography (including high-performance liquid chromatography), a fluorescent antibody technique using a fluorescence-labeled antibody, mass spectrometry, or a method using a radioisotope may be employed. Of these, liquid chromatography is preferable, in consideration of convenience.
In the evaluation test, 0.5% pantothenyl ethylether (90% ethanol product) was employed as a substance to be tested, and the skin of a miniature pig (Yucatan Micropig Skin Set: product of Charles River) was employed as a skin model.
The test sample (20 μl) was applied onto the skin sample comprising skin pores 14. The substance was applied onto a region (diameter: 1.5 cm) of the sample; i.e., within an assay ring to which silicon grease was applied. The resultant skin sample 10 was allowed to stand at 37° C. for 16 hours. After having being washed, the sample 10 was separated into the stratum corneum 11, the epidermis 12, and the dermis 13. Subsequently, hair follicles 15 were removed from the dermis 13, and the amount of pantothenyl ethylether contained in the follicles was measured, as a delivery amount per unit weight of the hair follicle, by means of liquid chromatography (NANOSPACE (product of Shiseido Co., Ltd.), eluent: (CH3CN:H2O=3:7), detection wavelength: 210 nm).
The skin sample 10 of the miniature pig was derived from the upper back and lower back (n=3).

[2] = in vivo
Description: (§1) (2) an in vivo quantification method (hereinafter referred to as “measurement method 1-2”) in which the amount of a substance (e.g., a drug) which is penetrated into the hair follicle is determined by applying the substance to the human scalp, removing the hair follicle from the scalp, and measuring the concentration of the substance which is delivered to the hair follicle.
(§2) In measurement method 1-2, a method for the application of a substance such as a drug to the human scalp may be arbitrarily determined in accordance with the characteristics or the intended product form of the substance.
(§3) After the substance is applied to a person participating in the test, several hair strands from the person are removed, and the thus-obtained hair follicles may be stored as hair shafts and/or outer root sheaths. The amount of the substance which is delivered to the subcutaneous portion of the hair shaft and/or the outer root sheath is measured, and the thus-obtained delivery amount of the substance may be employed as an index of the skin-pore absorbability of the substance.
(§4) The delivery amount of the substance may be measured in a manner similar to that of measurement method 1-1.
(§5) Thirty male panelists were enrolled in the test. […] Each of the test samples (0.5 ml for each) was applied to the scalp (area: 1 cm^2) of each male panelist, and then the scalp was left for 16 hours. […]

[3] = Measurement method 2: sebum transferability through keratinized silicone film into artificial sebum (Franz cell kit); assay type: in vitro ADME; settings: 5% isostearyl alcohol, 2% minoxidil composition, 20 μl, 37° C., 24 hours, FIG. 12
Description: The present invention also provides a method for the measurement of skin absorbability of a substance (hereinafter the method will be referred to as “measurement method 2”), which comprises bringing a substance into contact with a first surface of a film that mimics the skin surface layer, a second surface of the film being brought into contact with artificial sebum; and using the degree of transfer of the substance to the artificial sebum as an index, to thereby evaluate the sebum transferability of the substance.
The sebum transferability of a substance may be evaluated through the following procedure: the substance is applied to the stratum corneum side of the thin film, the opposite side of the stratum corneum side being brought into contact with the artificial sebum; the degree of transfer of the substance to the artificial sebum, for example, the amount of the substance transferred to the sebum per unit time, i.e., the amount of the substance contained in the sebum is measured; and the amount of the substance in the sebum is employed as an index, to thereby evaluate the sebum transferability of the substance.
1. […]
The test was carried out under the aforementioned conditions. […] The degree of transfer of minoxidil to the artificial sebum was evaluated on the basis of the concentration of minoxidil contained in the sebum after the elapse of a specified time period. […]

[4] = Measurement method 1-2: in vivo skin-pore absorption, human scalp hair follicles; settings: 5% isostearyl alcohol, 1% pantothenyl ethylether, 0.5 ml on scalp, 16 hours, vs control, FIG. 8
Description: as §1, §2, §3, §4, §5

Compound | skin-pore absorption of pantothenyl ethylether ([1]; 1% terpene refreshing agent, 0.5% pantothenyl ethylether, vs control, FIGS. 11A and 11B) | skin-pore absorption of pantothenyl ethylether [2] | skin-pore absorption of minoxidil (concentration delivered to the hair follicles) ([1]; 5% isostearyl alcohol compared with 5% amine oxide composition, 0.5% minoxidil, FIG. 9B) | skin-pore absorption of β-glycyrrhetinic acid (concentration delivered to the hair follicles) ([1]; 5% isostearyl alcohol compared with 5% amine oxide composition, 0.5% β-glycyrrhetinic acid, FIG. 9A) | concentration of pantothenyl ethylether delivered to hair follicles ([1]; 5% isostearyl alcohol composition vs control, 0.5% pantothenyl ethylether, 20 μl, 37° C., 16 hours, FIG. 4) | concentration of pantothenyl ethylether delivered to the stratum corneum ([1]; 5% isostearyl alcohol composition vs control, FIG. 5A) | concentration of pantothenyl ethylether delivered to the epidermis ([1]; 5% isostearyl alcohol composition vs control, FIG. 5B) | concentration of pantothenyl ethylether delivered to the dermis ([1]; 5% isostearyl alcohol composition vs control, FIG. 5C) | sebum transferability of minoxidil (concentration of minoxidil in the artificial sebum) [3] | concentration of pantothenyl ethylether delivered to the hair follicles (hair shafts and outer root sheaths) [4]
CC12CCC(CC1=O)C2(C)C (stereo not shown) [camphor] | accelerates | accelerates |  |  |  |  |  |  |  | 
CC(C)CCCCCCCCCCCCCCCO [isostearyl alcohol] |  |  | accelerates | accelerates | increases significantly | decreased | decreased | slightly increased | enhances | increases
